Measurements from patent US20090053807A1 (Novo Nordisk A/S, priority 1998, published 2009).
Like-named read-outs stand apart in the source and are kept apart here. Residues, ends and D or L forms follow the SMILES beside them. No end group written: not given here.

Columns and labels:
[1] = target: T1, human insulin receptor (HIR) (Homo sapiens, UniProt P06213); test: Insulin receptor binding, competition with 125I-labeled insulin (radio-receptor assay); conditions: for Kd: HIR binding affinity of synthetic peptides; for HIR binding affinity: comparison with monomers / homodimers
T1 construct: made in house

[2] = test system: free fat cells; test: Adipocyte / free fat cell (FFC) assay, 3H glucose incorporation into lipid; conditions: for FFC Pot.: agonist or antagonist / FFC Pot.: Table 8; for FFC Pot.: potency
[3] = target: soluble human insulin mini-receptor (mIR) (Homo sapiens, UniProt P06213, DEL496-730); test: Fluorescence polarization competition with FITC-RP9, mIR; type: binding; conditions: target mIR, label FITC-RP9, FP
[4] = test system: MCF-7 cells; test: MCF-7 cell proliferation assay, antagonist format (50 nM IGF-1); conditions: proliferation assays in the presence of IGF-1 using MCF-7 and MiaPaCa cells; Table 23
[5] = target: T2, IGF-1R (Homo sapiens, UniProt P08069); conditions: for binding ratio for IGF-1R over IR: TR-FRET at rhIGF-1R versus FP at sIR-Fc, summary of Table 22
[6] = target: T3, soluble human insulin receptor-immunoglobulin heavy chain chimera (sIR-Fc) (Homo sapiens, UniProt P06213); test: Fluorescence polarization competition with FITC-RP9, sIR-Fc; type: binding; conditions: for Bndg Ratio IGF-1R/1R: higher values indicated higher affinity for IR than IGF-1R; for affinity / potency at IR: FP, FITC-RP9, summary of Table 22
T3 construct: replacing the transmembrane domain and the intracellular domain of IR with constant domains from immunoglobulin Fc or λ subunits; made in house; host or cells: human embryonic kidney 293 cells (as described for the Bass construct)

[7] = target: T2, IGF-1R; test: TR-FRET, dissociation of biotinylated-20E2 from IGF-1R; type: binding; conditions: peptides 100 μM, IGF-1 30 μM
Procedure: Best fit non-linear regression analysis of the data, was used to determine dissociation rate constants. Each data point represents a single observation.
Reactions were allowed to reach equilibrium for 6 h at RT.

[8] = target: insulin receptor construct transfected into 32D cells (Homo sapiens, UniProt P06213); test: IR autophosphorylation assay in IR transfected 32D cells (ELISA); conditions: MBP fusion peptides, FIG. 30
[9] = target: T2, IGF-1R; test: Phage ELISA, binding of phage clones to IGF-1R (ratio over background); set-up: included the heterotetrameric (alpha 2-beta 2) extracellular domain of IGF-1R isolated from a mouse myeloma cell line; purchased R&D Systems 391-GR/CF; host or cells: mouse myeloma cell line; conditions: ratio of IGF-1R divided by ratio of IR
[10] = target: T4, IR (Homo sapiens, UniProt P06213); test: Phage ELISA, binding of phage clones to IR (ratio over background); conditions: ratio of IR divided by ratio of IGF-1R
T4 construct: replacing the transmembrane domain and the intracellular domain of IR with constant domains from immunoglobulin Fc or λ subunits; made in house; host or cells: human embryonic kidney 293 cells (as described for the Bass construct)

[11] = target: His-tagged soluble recombinant human IGF-1R (srhIGF-1R-his) (Homo sapiens, UniProt P08069); test: ALPHAScreen binding assay, competition with b-hIGF-1; conditions: Table 29
[12] = test system: FDC-P2 cells expressing the IL-3 and human IGF-1R receptors
[13] = test system: MCF-7 cells; test: MCF-7 cell proliferation assay, agonist format; type: cell-based, human
[14] = test system: FDC-P2 cells expressing the IL-3 and human IGF-1R receptors; test: IGF-1 proliferation assay in FDC-P2 cells, antagonist format
[15] = test system: MiaPaCa cells; test: MiaPaCa cell proliferation assay, agonist format; type: cell-based, human; conditions: serum-free conditions
[16] = target: recombinant human insulin receptor (Homo sapiens, UniProt P06213); test: Substrate phosphorylation assay (HIR kinase); type: biochemical; conditions: for Kinase Pot. (nM): potency, Table 8
Procedure: Subsequently, a 2000-fold dilution of horseradish peroxidase (HRPO) conjugated phosphotyrosine antibody (Transduction Laboratories, Cat. No. E120H) in TBS was added. The plates were incubated for 30 min and washed 3 times with TBS. TMB (3,3′,5,5′-tetramethylbenzidine; Kem-En-Tec, Copenhagen, Denmark) was added. One substrate from Kem-En-Tec was added. After 10^−15 min, the reaction was stopped by the addition of 1% acetic acid. The absorbance, representing the extent of substrate phosphorylation, was measured in a spectrophotometer at a wavelength of 450 nm.

[17] = in the presence of a stimulating concentration of insulin
[18] = standard concentration of insulin

## CC[C@@H](C)[C@@H](NC(=O)[C@H](CCC(=O)O)NC(=O)[C@H](CC(=O)O)NC(=O)[C@H](Cc1ccccc1)NC(=O)[C@H](Cc1c[nH]c2ccccc12)NC(=O)[C@H](CCC(=O)O)NC(=O)[C@H](Cc1ccc(O)cc1)NC(=O)[C@H](Cc1ccccc1)NC(=O)[C@H](CCC(=O)O)NC(=O)[C@H](CCCCN)NC(=O)[C@H](CC(N)=O)NC(=O)[C@H](CC(N)=O)NC(=O)[C@@H](N)CCCCN)C(=O)NCC(=O)N[C@H](CCC(N)=O)C(=O)O [Peptide S320] (HELM PEPTIDE1{K.N.N.K.E.F.Y.E.W.F.D.E.[dI].G.[dQ]}$$$$V2.0; N-terminus and C-terminus assumed)
[1]
  Kd: 2800 nM

## CC(C)C[C@H](NC(=O)[C@H](CCC(N)=O)NC(=O)[C@H](CCCNC(=N)N)NC(=O)[C@H](CCC(=O)O)NC(=O)[C@H](Cc1ccccc1)NC(=O)[C@H](Cc1c[nH]c2ccccc12)NC(=O)[C@H](CC(=O)O)NC(=O)[C@H](Cc1ccc(O)cc1)NC(=O)[C@H](Cc1ccccc1)NC(=O)[C@H](CO)NC(=O)[C@@H](N)CCC(=O)O)C(=O)NCC(=O)O [Peptide S390]
[2]
  activity in the FFC assay / at IR: potency similar to full-length RP9 monomer peptides
[3]
  Hill: −0.94

## CC(C)C[C@@H]1NC(=O)[C@@H](NC(=O)[C@H](CO)NC(=O)[C@H](Cc2ccc(O)cc2)NC(=O)[C@H](Cc2ccccc2)NC(=O)[C@@H](N)CO)CSSC[C@@H](C(=O)N[C@@H](CCCNC(=N)N)C(=O)N[C@@H](CCCCN)C(=O)N[C@@H](CCCCN)C(=O)O)NC(=O)CNC(=O)[C@H](CC(=O)O)NC(=O)[C@H](Cc2c[nH]c3ccccc23)NC(=O)[C@H](CCC(N)=O)NC(=O)CNC(=O)[C@H](CCCNC(=N)N)NC(=O)[C@H](CO)NC(=O)[C@H](CCCCN)NC(=O)[C@H](CCC(=O)O)NC(=O)[C@H](C)NC(=O)[C@@H]2CCCN2C(=O)CNC(=O)[C@H](CC(N)=O)NC(=O)[C@H](C(C)C)NC(=O)[C@H](CC(C)C)NC(=O)[C@H](CO)NC(=O)[C@H](CCC(=O)O)NC1=O [RP33-IGF with KK]
[4]
  Activ.: Antag.

## DYKDFYDAIDQLVRGSARAGGTRD [20E2(D118)]
[5]; read-out: TR-FRET rhIGF-1R IC50, vs. b-20E2, Table 22
  IC50: 100 nM
[6]
  Bndg Ratio IGF-1R/1R: 1.9

## FHENFYDWFVQRVSKK [Peptide H2C]
[7]
  rate of dissociation of b-20E2: similar
[5]
  binding ratio for IGF-1R over IR: lower binding ratios for IGF-1R over IR
[3]
  Hill: −0.89
[6]
  affinity / potency at IR: slightly less potent
[8]
  stimulation of autophosphorylation of IR: stimulate autophosphorylation of IR

## FYVQQYWGHENFYDWFDRQVSQSGGAG [H2CA-4-P1-IGFR]
[9]
  Comparisons IGF-1R/IR: 3.8
[10]
  Comparisons IR/IGF-1R: 0.3

## GIISQSCPESFYDWFAGQVSDPWWCW [Peptide G33]
[11]
  IC50: 600 nM
[12]; FDC-P2 cells
  ED50, agonist activity at IGF-1R: ~10000 nM
  agonist activity at IGF-1R: IGF-1R agonist activity
[12]; FDC-P2 cells, agonist format, Table 15
  ED50 Growth: 500 nM
[12]; FDC-P2 cells, Table 15
  Max Action: >50%
[12]; Table 30
  FDC-P2 Agonist: +
[6]
  affinity / potency at IR: less potent
[13]; MCF-7 and MiaPaCa cell proliferation (Tables 27-28)
  IGF-1R agonist activity: IGF-1R agonist activity
[14]
  antagonist activity at IGF-1R: no antagonist activity

## GRVDWLQRNANFYDWFVAELG [Peptide S175]
[12]
  EC50: 10000 nM
[12]; FDC-P2 cells
  ED50, agonist activity at IGF-1R: > 10000 nM
  agonist activity at IGF-1R: IGF-1R agonist activity
[3]
  Hill: −1.72

## GSLDESFYDWFERQL [Peptide S395]
[1]
  Kd: 81 nM

## HDPFYSMMKSLLK [Peptide S120]
[1]
  Kd: 2000 nM

## IGF-1: Insulin-like growth factor 1, from PeproTech; control
[15]
  ED50, proliferation: 5 nM
[13]; MCF-7, serum-free conditions
  ED50, proliferation: 5 nM

## MADYKDDDDKGSLDESFYDWFERQLGKKGGSGGSGGSGGSWLDQEWAWVQCEVYGRGCPSAAA(ETAG)PG [Peptide 538]
[1]
  HIR binding affinity: substantially higher (several orders of magnitude) affinity
[2]
  activity in the FFC assay / at IR: specific insulin receptor antagonists
  FFC Pot.: agonist or antagonist: N
  FFC Pot.: 10 nM
[2]; [17]
  activity in the FFC assay: antagonists
[2]; [18]
  activity in the FFC assay: inactive
[16]
  Kinase Pot. (nM): Inactive

## MADYKDDDDKGSLDESFYDWFERQLGKKGGSGGSWLDQEWAWVQCEVYGRGCPSAAA(ETAG)PG [Peptide 537]
[1]
  HIR binding affinity: substantially higher (several orders of magnitude) affinity
[2]
  activity in the FFC assay / at IR: specific insulin receptor antagonists
  FFC Pot.: agonist or antagonist: N
  FFC Pot.: 10 nM
[2]; [17]
  activity in the FFC assay: antagonists
[2]; [18]
  activity in the FFC assay: inactive
[16]
  Kinase Pot. (nM): Inactive

## MADYKDDDDKWLDQEWAWVQCEWGRGCPSGGSGGSGSLDESFYDWFERQLGKKAAA(ETAG)PG [Peptide 539]
[1]
  HIR binding affinity: substantially higher (several orders of magnitude) affinity
[2]
  activity in the FFC assay / at IR: full agonist
  FFC Pot.: 10 nM
[16]
  activity in the HIR kinase assay: more active

## PPWGARFYDAIEQLVFDNL [RP4]
[5]
  IC50: 8100 nM
  binding ratio for IGF-1R over IR: high binding ratios for IGF-1R over IR
[6]
  affinity / potency at IR: high affinities for IR
  Bndg Ratio IGF-1R/1R: 476
[6]; vs. FITC-RP9, Table 22, read-out: FP sIR-Fc IC50
  IC50: 17 nM

## SLNFYDALQLLAKK [Peptide S119]
[1]
  Kd: 1800 nM

## WFGYAWLS-NH2 (C-terminus assumed) [Peptide S317]
[1]
  HIR binding affinity: increased HIR binding affinity
[2]
  activity in the FFC assay / at IR: increased potency in FFC assays
[2]; FFC assay potency, number of + grades agonist potency
  FEC: 0
